Experimental findings from article PMC9569954, “The Antidepressant-like Activity, Effects on Recognition Memory Deficits, Bioavailability, and Safety after Chronic Administration of New Dual-Acting Small Compounds Targeting Neuropsychiatric Symptoms in Dementia” (International Journal of Molecular Sciences, 2022) are described below.

This data set is described as follows: Ferric-reducing antioxidant power (FRAP) of serum. The class given is in vivo, rats. The conditions noted are these: rat, 1 mg/kg/day i.p., 21 days. As for the experimental part:
The assay was performed according to Benzie and Strain [46] with some modifications. The FRAP working solution was prepared before the start of the analysis, namely, 0.3 mol acetate buffer (pH 3.6), 0.01 mol TPTZ (2,4,6-tripyridyl-s-triazine; Sigma-Aldrich) in 0.04 mol HCl (POCh, Gliwice, Poland), and 0.02 M FeCl3×6H2O in water (iron (III) chloride hexahydrate; Chempur, Piekary Śląskie, Poland) were mixed in a volumetric ratio of 10:1:1 and protected from light.
Next, 20 µL of the plasma sample tested, brain homogenate, or FeSO4×7H2O solution was mixed with 180 µL of the FRAP working solution. The mixtures obtained were incubated at 37 °C for 30 min and their absorbance was measured at 593 nm. FeSO4×7H2O (100–1000 µM/L) was used for a calibration curve. Deionized water with FRAP solution was used as a blank.

As to `COc1cccc(N2CCN(CC3CCN(c4ncnc5cc(OC)c(OC)cc45)C3)CC2)c1` (centres unmarked) [PQA-AZ4, 6,7-Dimethoxy-4-(3-((4-(3-methoxyphenyl)piperazin-1-yl)methyl)pyrrolidin-1-yl)quinazoline], the “total antioxidant activity of serum (Fe2+ formed, FRAP) vs control” value is given as “comparable”.
Consider `COc1cc2ncnc(N3CCC(CN4CCN(c5ccc(Cl)cc5)CC4)C3)c2cc1OC` (centres unmarked) [PQA-AZ6, 4-(3-((4-(4-Chlorophenyl)piperazin-1-yl)methyl)pyrrolidin-1-yl)-6,7-dimethoxyquinazoline], for which the “total antioxidant activity of serum (Fe2+ formed, FRAP) vs control” value was “comparable”.
